From the NIST ThermoML archive (doi:10.1016/j.fluid.2013.06.006)
± gives the expanded uncertainty stated by the source.

Legend:
[1] = refractive index (Na D-line) (dimensionless); conditions: 293.2 K; 101.33 kPa; Liquid; Standard Abbe refractometry
[2] = 293.2 K; 101.33 kPa; Liquid; Vibrating tube method

Structure (SMILES) | refractive index [1] | mass density [2]
CCCCCO [pentan-1-ol] | 1.41 ± 0.0005 | 813.98 ± 0.26 kg/m3
O=CO [formic acid] | 1.3711 ± 0.0005 | 1219.5 ± 0.4 kg/m3

Now from value to molecule:

refractive index [1] | mass density [2] | Structure (SMILES)
1.3983 ± 0.0005 | 809.33 ± 0.26 kg/m3 | CCCCO [butan-1-ol]
1.3328 ± 0.0005 |  | O [water]
1.4181 ± 0.0005 | 818.21 ± 0.26 kg/m3 | CCCCCCO [hexan-1-ol]
1.4244 ± 0.0005 | 821.63 ± 0.26 kg/m3 | CCCCCCCO [heptan-1-ol]
